We go through two compounds from article PMC8752476 (Journal of molecular biology, 2021).

The target of assay [1] is Abl^Y272H/A363V. Nature of the assay: Kinase assay, phosphorylation of CrkII, Abl Y272H/A363V. In kind it is biochemical, human.
For assay [2], the system named is Abl^FK (SH3-SH2 module and kinase domain). Nature of the assay: NMR. The arrangement: species or system human. To be noted: GNF5 displaces imatinib from the myristoyl pocket.

SMILES strings stand for the structures.

On to `O=C(NCCO)c1cccc(-c2cc(Nc3ccc(OC(F)(F)F)cc3)ncn2)c1` [GNF5], for which the “kinase activity of Abl^Y272H/A363V in the presence of both imatinib and GNF5” value in assay [1] (2 mM ATP) is recorded as “strongly suppressed”. Also, the “effect on equilibrium, GNF5 added to imatinib-bound Abl^FK” value in assay [2] is recorded as “shifts the population almost fully towards the inhibited state”.

For `Cc1ccc(NC(=O)c2ccc(CN3CCN(C)CC3)cc2)cc1Nc1nccc(-c2cccnc2)n1` [imatinib], the “kinase activity of Abl^Y272H/A363V in the presence of imatinib” value in assay [1] (2 mM ATP, compared with Abl^Y272H/L359A) was “significantly higher than the activity of Abl^Y272H/L359A”. In addition, the “effect on catalytic activity of Abl^Y272H/A363V at high ATP” value in assay [1] (20 mM ATP) is “significantly increases the catalytic activity”.
